Assays:
α-glucosidase = α-glucosidase (Saccharomyces cerevisiae, UniProt P53341); experiment: α-Glucosidase inhibitory activity assay (p-nitrophenyl-α-glucopyranoside hydrolysis, absorbance at 400 nm); type: biochemical; conditions: for type of inhibition of α-glucosidase (Lineweaver-Burk plot method): kinetic studies at increasing concentration of substrates and inhibitors
Method: α-Glucosidase was assayed according to standard procedures by following the hydrolysis of nitrophenyl glycosides by monitoring formation of p-nitrophenol spectrometrically at 400 nm. The reaction mixture (final volume, 1 mL) consisted of the enzyme solution (20 μL, Sigma 9001-42-7, E.C 3.2.1.20), substrate (10 mM p-nitrophenyl-α-glucopyranoside, 20 μL, Fluka, BioChemika, Buchs, Switzerland) in 50 mM potassium phosphate buffer (pH 7.0) and test sample dissolved in DMSO (20 μL). The inhibitors were pre-incubated with the enzyme at 37 °C for 30 min, and the substrate was then added. The reaction was monitored spectrophotometrically by measuring the absorbance at 400 nm. […] The inhibitory activity of test compound was determined as a percentage in comparison to a blank according with the following equation: The inhibition rates (%) = [(ODcontrol − ODcontrol blank) − (ODtest − ODtest blank)]/(ODcontrol − ODcontrol blank) × 100%. The IC50 values of compounds were calculated by the nonlinear regression analysis and expressed as the mean ± SD of two distinct experiments. Kinetic parameters were determined using the Lineweaver-Burk double-reciprocal plot method at increasing concentration of substrates and inhibitors.

Sequence of α-glucosidase (P53341 whole entry): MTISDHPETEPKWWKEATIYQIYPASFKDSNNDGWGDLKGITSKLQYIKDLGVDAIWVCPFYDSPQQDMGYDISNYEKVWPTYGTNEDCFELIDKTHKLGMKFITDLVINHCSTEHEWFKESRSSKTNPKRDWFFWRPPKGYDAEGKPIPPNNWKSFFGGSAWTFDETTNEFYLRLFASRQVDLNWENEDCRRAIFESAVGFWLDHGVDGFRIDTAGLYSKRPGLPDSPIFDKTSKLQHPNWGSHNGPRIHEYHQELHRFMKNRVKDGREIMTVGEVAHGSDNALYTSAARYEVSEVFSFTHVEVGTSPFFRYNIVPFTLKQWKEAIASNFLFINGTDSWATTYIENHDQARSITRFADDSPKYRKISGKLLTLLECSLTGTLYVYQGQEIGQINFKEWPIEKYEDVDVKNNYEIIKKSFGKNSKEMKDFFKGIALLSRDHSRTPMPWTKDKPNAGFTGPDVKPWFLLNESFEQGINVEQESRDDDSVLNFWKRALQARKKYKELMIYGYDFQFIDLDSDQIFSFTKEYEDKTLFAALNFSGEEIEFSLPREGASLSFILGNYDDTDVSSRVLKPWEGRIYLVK

type of inhibition of α-glucosidase (Lineweaver-Burk plot method) (α-glucosidase) | melting point [°C] | Compound | IC50 (α-glucosidase; mean ± SD from two independent experiments, pre-incubated with the enzyme at 37 °C for 30 min, pH 7.0) [µM]
competitive inhibitors |  | CSC(=O)c1c(C)cc2c(c1O)CC(C(C)(C)O)O2 (stereo not shown) [Compound 1, eurothiocin A] | 
competitive inhibitors | 122 to 123 | CSC(=O)c1c(C)cc2c(c1O)CC(C(C)(O)CO)O2 (stereo not shown) [Compound 2, eurothiocin B] | 
 |  | butyrolactone I [Compound 4] | 98.5 ± 3.3
